The target of one test is T1, human CYP11B2 (Homo sapiens, UniProt P19099).
T1 construct: expressed in transfected cells
T1 sequence (P19099 25-503): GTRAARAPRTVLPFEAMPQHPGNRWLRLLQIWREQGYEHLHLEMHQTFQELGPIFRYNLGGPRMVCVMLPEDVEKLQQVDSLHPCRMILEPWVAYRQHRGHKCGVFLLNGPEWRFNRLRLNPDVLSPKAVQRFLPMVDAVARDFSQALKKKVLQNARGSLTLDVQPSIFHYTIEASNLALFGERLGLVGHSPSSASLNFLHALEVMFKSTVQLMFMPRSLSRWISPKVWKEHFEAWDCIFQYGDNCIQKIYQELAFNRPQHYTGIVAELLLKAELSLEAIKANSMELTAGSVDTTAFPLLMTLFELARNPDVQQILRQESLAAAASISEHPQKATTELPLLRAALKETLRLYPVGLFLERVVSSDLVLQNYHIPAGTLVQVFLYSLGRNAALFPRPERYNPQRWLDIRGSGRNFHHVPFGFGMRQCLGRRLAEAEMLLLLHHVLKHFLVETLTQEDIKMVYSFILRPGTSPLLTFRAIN
As to the kind of experiment: G-402 cellular enzyme assay, human CYP11B2 (aldosterone release, HTRF). The test is classed as cell-based. Particulars: G-402 cells, 1 μM Deoxycorticosterone. In a few lines: (§1)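 Stable G-402 transfectants; 16 h incubation with inhibitor plus substrate — CYP11B2: 1 μM deoxycorticosterone, aldosterone read; CYP11B1: 1 μM deoxycortisol, cortisol read. HTRF on supernatant. Medium DMEM/F12, 2.5% charcoal FCS. EC50 via MMF sigmoidal fit.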
A general note: TR-FRET usually uses a lanthanide donor and a delayed reading to cut background.

The target of a further test is T2, human CYP11B1 (Homo sapiens, UniProt P15538).
T2 construct: expressed in transfected cells
T2 sequence (P15538 25-503): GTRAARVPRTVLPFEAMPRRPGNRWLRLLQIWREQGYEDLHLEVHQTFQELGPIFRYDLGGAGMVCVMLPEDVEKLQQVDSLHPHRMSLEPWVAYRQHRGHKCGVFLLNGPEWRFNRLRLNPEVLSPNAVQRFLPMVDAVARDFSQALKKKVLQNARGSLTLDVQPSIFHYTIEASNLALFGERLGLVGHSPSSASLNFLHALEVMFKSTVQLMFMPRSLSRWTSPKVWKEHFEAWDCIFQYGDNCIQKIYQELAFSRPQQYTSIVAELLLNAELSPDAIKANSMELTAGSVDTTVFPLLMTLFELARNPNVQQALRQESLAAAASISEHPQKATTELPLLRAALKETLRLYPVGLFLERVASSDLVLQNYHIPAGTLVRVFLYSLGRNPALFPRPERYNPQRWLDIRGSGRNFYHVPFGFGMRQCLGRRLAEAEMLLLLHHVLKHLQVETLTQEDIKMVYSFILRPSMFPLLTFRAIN
Put plainly: G-402 cellular enzyme assay, human CYP11B1 (cortisol release, HTRF). The test is classed as cell-based. The following applies: G-402 cells, 1 μM Deoxycortisol. Summed up:
as §1

The structures appear in SMILES notation.

`CS(=O)(=O)NC1CCCc2c1cncc2N1Cc2cc(Cl)ccc2C1=O` (single isomer, unassigned) [Example 326, N-[(S or R)-4-(5-Chloro-1-oxo-1,3-dihydro-isoindol-2-yl)-5,6,7,8-tetrahydro-isoquinolin-8-yl]-methanesulfonamide]: the EC50 (as a rule, the midpoint of the concentration-response curve) at human CYP11B2 worked out at 1870 nM; on human CYP11B1 it was 6610 nM.

In the case of `O=C1c2ccc(Cl)cc2CCN1c1cncc(-c2cccc(C(F)(F)F)c2)c1` [Example 236, 6-Chloro-2-[5-(3-trifluoromethyl-phenyl)-pyridin-3-yl]-3,4-dihydro-2H-isoquinolin-1-one], the EC50 at human CYP11B2 was determined as 133 nM; on human CYP11B1 it was 4390 nM.

`CC1(C)c2cc(Cl)ccc2C(=O)N1c1cncc(CN2CCCCC2=O)c1` [Example 410, 5-Chloro-3,3-dimethyl-2-[5-(2-oxo-piperidin-1-ylmethyl)-pyridin-3-yl]-2,3-dihydro-isoindol-1-one]: the 50% effective concentration (EC50) at human CYP11B2 was determined as 16.5 nM; on human CYP11B1, 1730 nM.

As for `O=C1c2ccc(Cl)cc2CCN1c1cncc(COCC2CC2)c1` [Example 198, 6-Chloro-2-(5-cyclopropylmethoxymethyl-pyridin-3-yl)-3,4-dihydro-2H-isoquinolin-1-one], the figures for the EC50 at human CYP11B2 and on human CYP11B1 were 2450 nM and 990 nM, respectively.

On to `CC[C@H]1c2cc(Cl)ccc2C(=O)N1c1cncc2c1CC[C@H]2NS(C)(=O)=O` (single isomer, unassigned) [Example 368, N-[(R or S)-4-((S or R)-5-Chloro-3-ethyl-1-oxo-1,3-dihydro-isoindol-2-yl)-6,7-dihydro-5H-[2]pyrindin-7-yl]-methanesulfonamide], for which the EC50 on human CYP11B2 came out at 12.1 nM; at human CYP11B1 it was 723 nM.

Turning to `CN(C)C(=O)c1cncc(N2CCc3cc(Cl)ccc3C2=O)c1` [Example 41, 5-(6-Chloro-1-oxo-3,4-dihydro-1H-isoquinolin-2-yl)-N,N-dimethyl-nicotinamide], the figures for the concentration for a half-maximal effect (EC50) on human CYP11B2 and on human CYP11B1 were 3750 nM and 6080 nM, respectively.

In the case of `O=C1c2ccc(Cl)cc2CCN1c1cncc(Cn2cnnc2)c1` [Example 179, 6-Chloro-2-(5-[1,2,4]triazol-4-ylmethyl-pyridin-3-yl)-3,4-dihydro-2H-isoquinolin-1-one], the EC50 on human CYP11B2 came out at 620 nM; at human CYP11B1 it was 7720 nM.

In the case of `O=C1c2ccc(Cl)cc2CCN1c1cncc2c([N+](=O)[O-])cccc12` [Example 287, 6-Chloro-8′-nitro-3,4-dihydro-[2,4′]biisoquinolinyl-1-one], the EC50 was found to be 555 nM on human CYP11B2 and 6410 nM at human CYP11B1.

Regarding `O=C1c2ccc(Cl)cc2CCN1c1cncc(COc2ccccc2F)c1` [Example 199, 6-Chloro-2-[5-(2-fluoro-phenoxymethyl)-pyridin-3-yl]-3,4-dihydro-2H-isoquinolin-1-one], the results for the EC50 on human CYP11B2 and at human CYP11B1 were 104 nM and 282 nM, respectively.

Regarding `COc1cncc(N2CCc3cc(Cl)c(F)cc3C2=O)c1` [Example 100, 6-Chloro-7-fluoro-2-(5-methoxy-pyridin-3-yl)-3,4-dihydro-2H-isoquinolin-1-one], the figures for the EC50 on human CYP11B2 and on human CYP11B1 were 17.2 nM and 485 nM, respectively.

Take `O=C1c2ccc(Cl)cc2CCN1c1cncc(Cc2cc(F)ccc2F)c1` [Example 212, 6-Chloro-2-[5-(2,5-difluoro-benzyl)-pyridin-3-yl]-3,4-dihydro-2H-isoquinolin-1-one]: the EC50 at human CYP11B2 was 8.4 nM; at human CYP11B1 it was 81.6 nM.

With `Cc1ncccc1C(=O)NCc1cncc(N2C(=O)c3ccc(Cl)cc3C2(C)C)c1` [Example 439, N-[5-(6-Chloro-1,1-dimethyl-3-oxo-1,3-dihydro-isoindol-2-yl)-pyridin-3-ylmethyl]-2-methyl-nicotinamide], the EC50 at human CYP11B2 was 119 nM; on human CYP11B1 it was 6900 nM.

On to `CCC1c2ccc(Cl)cc2C(=O)N1c1cncc(F)c1` (single isomer, unassigned) [Example 308, (R or S)-6-Chloro-3-ethyl-2-(5-fluoro-pyridin-3-yl)-2,3-dihydro-isoindol-1-one], for which the EC50 at human CYP11B2 was 380 nM; at human CYP11B1, 26300 nM.

As to `CS(=O)(=O)NC1CCc2c1cncc2N1Cc2cc(Cl)ccc2C1=O` (single isomer, unassigned) [Example 334, N-[(R or S)-4-(5-Chloro-1-oxo-1,3-dihydro-isoindol-2-yl)-6,7-dihydro-5H-[2]pyrindin-7-yl]-methanesulfonamide], the results for the EC50 at human CYP11B2 and at human CYP11B1 were 383 nM and 34600 nM, respectively.

Consider `Cn1nccc1-c1cncc(N2CCc3cc(Cl)ccc3C2=O)c1` [Example 238, 6-Chloro-2-[5-(2-methyl-2H-pyrazol-3-yl)-pyridin-3-yl]-3,4-dihydro-2H-isoquinolin-1-one], for which the values for the 50% effective concentration (EC50) on human CYP11B2 and on human CYP11B1 were 104 nM and 5990 nM, respectively.

For the molecule `CC1CN(c2cncc(F)c2)C(=O)c2ccc(Cl)cc21` (stereo not drawn) [Example 106, 6-Chloro-2-(5-fluoro-pyridin-3-yl)-4-methyl-3,4-dihydro-2H-isoquinolin-1-one], the values for the EC50 at human CYP11B2 and on human CYP11B1 were 516 nM and 8560 nM, respectively.

Consider `CC[C@H]1c2cc(Cl)ccc2C(=O)N1c1cncc2c1CC[C@H]2NC(C)=O` (single isomer, unassigned) [Example 343], for which the concentration giving a half-maximal response (EC50) at human CYP11B2 was found to be 134 nM; at human CYP11B1, 4690 nM.

Consider `O=C1c2ccc(Cl)cc2CCN1c1cncc(Cn2ccnc2)c1` [Example 140, 6-Chloro-2-(5-imidazol-1-ylmethyl-pyridin-3-yl)-3,4-dihydro-2H-isoquinolin-1-one], for which the concentration for a half-maximal effect (EC50) at human CYP11B2 was 11.8 nM; on human CYP11B1, 70.4 nM.

`Cn1nccc1-c1cncc(N2C(=O)c3ccc(Cl)nc3C2(C)C)c1` [Example 425, 2-Chloro-7,7-dimethyl-6-[5-(2-methyl-2H-pyrazol-3-yl)-pyridin-3-yl]-6,7-dihydro-pyrrolo[3,4-b]pyridin-5-one]: the EC50 at human CYP11B2 came out at 56.2 nM; at human CYP11B1, 1270 nM.

For the molecule `CC[C@H]1c2cc(Cl)ccc2C(=O)N1c1cncc2c1CC[C@@H]2NC(C)=O` (single isomer, unassigned) [Example 345, (−)-N—[(S or R)-4-((S or R)-5-Chloro-3-ethyl-1-oxo-1,3-dihydro-isoindol-2-yl)-6,7-dihydro-5H-[2]pyrindin-7-yl]-acetamide], the concentration for a half-maximal effect (EC50) on human CYP11B2 was determined as 49.4 nM; at human CYP11B1, 2000 nM.

`CC(c1cncc(N2CCc3cc(Cl)ccc3C2=O)c1)N1CCCC1=O` (stereo not drawn) [Example 274, 6-Chloro-2-{5-[1-(2-oxo-pyrrolidin-1-yl)-ethyl]-pyridin-3-yl}-3,4-dihydro-2H-isoquinolin-1-one]: the EC50 at human CYP11B2 was 128 nM; at human CYP11B1, 1050 nM.

In the case of `O=C1c2ccc(Cl)cc2CCN1c1cncc(CNc2ccccc2)c1` [Example 257, 6-Chloro-2-(5-phenylaminomethyl-pyridin-3-yl)-3,4-dihydro-2H-isoquinolin-1-one], the 50% effective concentration (EC50) stood at 11.3 nM at human CYP11B2 and 95.4 nM on human CYP11B1.

With `CCC(=O)N1CCC(Oc2cncc(N3C(=O)c4ccc(Cl)cc4C3(C)C)c2)C1` (stereo not drawn) [Example 444, 5-Chloro-3,3-dimethyl-2-[5-(1-propionyl-pyrrolidin-3-yloxy)-pyridin-3-yl]-2,3-dihydro-isoindol-1-one], the results for the concentration for a half-maximal effect (EC50) at human CYP11B2 and at human CYP11B1 were 8.4 nM and 514 nM, respectively.

For the molecule `CC1(C)c2cc(Cl)ccc2C(=O)N1c1cncc(CNC(=O)c2cccnc2)c1` [Example 438, N-[5-(6-Chloro-1,1-dimethyl-3-oxo-1,3-dihydro-isoindol-2-yl)-pyridin-3-ylmethyl]-nicotinamide], the EC50 at human CYP11B2 is 3.8 nM; at human CYP11B1, 202 nM.

These data come from patent publication US9133158B2, “Bicyclic dihydroisoquinoline-1-one derivatives” (Hoffmann-La Roche Inc., priority 2011, dated 2015).
